Tests used:
[1] = biological target: T1, Recombinant full-length human IDO1 (Homo sapiens, UniProt P14902); assay: IDO1 enzymatic assay (NFK quantified by LCMS); format: biochemical; conditions: 2 nM enzyme, 5 μM L-tryptophan, pH6.5, 30 minutes pre-incubation at RT; mean values when measured multiple times; read-out: hIDO activity (IC50 in nM)
T1 construct: Recombinant full-length human IDO1 with a N-terminal hexahistidine tag; hexahistidine (His6) (N); made in house; host or cells: E. coli
Summary of the method: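 His-tagged human IDO1 (2 nM) in pH 6.5 phosphate buffer with ascorbate, methylene blue and catalase was preincubated with compound (10 μM–0.5 nM, 0.6% DMSO) for 30 min at RT. The reaction then ran with 5 μM L-Trp for 30 min. NFK was measured by LCMS against a d5-Trp standard, and IC50 was obtained by four-parameter fit.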

[2] = biological target: T2, Recombinant human TDO comprising amino acids 19-407 (Homo sapiens, UniProt P48775); assay: TDO2 enzymatic assay (NFK quantified by LCMS); format: biochemical; conditions: 15 nM enzyme, 200 μM L-tryptophan, pH7, 30 minutes pre-incubation at RT; mean values when measured multiple times; read-out: hTDO activity (IC50 in nM)
T2 construct: Recombinant human TDO comprising amino acids 19-407 with a N-terminal hexahistidine tag; hexahistidine (His6) (N); made in house; host or cells: E. coli
T2 sequence (P48775 19-406 limits assumed): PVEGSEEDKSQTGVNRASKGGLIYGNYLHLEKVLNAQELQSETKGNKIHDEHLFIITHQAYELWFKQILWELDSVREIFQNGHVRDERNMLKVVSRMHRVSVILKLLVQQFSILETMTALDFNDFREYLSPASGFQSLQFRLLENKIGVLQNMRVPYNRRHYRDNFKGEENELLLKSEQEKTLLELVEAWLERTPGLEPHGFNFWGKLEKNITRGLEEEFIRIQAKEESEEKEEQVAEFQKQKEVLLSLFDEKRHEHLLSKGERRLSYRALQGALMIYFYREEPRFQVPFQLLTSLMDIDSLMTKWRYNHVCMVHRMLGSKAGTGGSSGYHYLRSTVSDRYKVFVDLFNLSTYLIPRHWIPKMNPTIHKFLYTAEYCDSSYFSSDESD
Summary of the method: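 NFK formed over 30 min at RT from 200 μM L-tryptophan was measured by LCMS, normalized to d5-tryptophan, after compound (0.5 nM–10 μM, duplicates, 0.6% DMSO) was preincubated 30 min with 15 nM recombinant His-tagged TDO 19-407 in phosphate buffer pH 7. IC50 from four-parameter logistic fit; repeats averaged.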

T1 sequence (P14902 whole entry): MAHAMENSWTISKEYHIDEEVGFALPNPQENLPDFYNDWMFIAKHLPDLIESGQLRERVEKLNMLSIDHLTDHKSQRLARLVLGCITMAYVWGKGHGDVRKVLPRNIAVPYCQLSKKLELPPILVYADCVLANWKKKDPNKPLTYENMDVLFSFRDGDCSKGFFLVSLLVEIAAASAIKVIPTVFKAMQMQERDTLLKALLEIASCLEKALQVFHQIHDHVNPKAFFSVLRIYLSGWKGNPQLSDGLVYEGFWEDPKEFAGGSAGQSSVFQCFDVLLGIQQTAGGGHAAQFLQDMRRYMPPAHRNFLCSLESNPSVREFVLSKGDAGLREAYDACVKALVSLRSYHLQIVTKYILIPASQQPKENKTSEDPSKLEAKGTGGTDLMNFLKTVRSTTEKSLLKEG

Row | Structure (SMILES) | IC50 [1] [nM] | IC50 [2] [nM]
1 | OC(c1cn(-c2ccc(OCC3CCCCO3)cc2)nn1)c1c(C2CC2)sc2cncn12 (centres unmarked) [Example 143, (2-Cyclopropyl-imidazo[5,1-b]thiazol-3-yl)-{1-[4-(tetrahydro-pyran-2-ylmethoxy)-phenyl]-1H-[1,2,3]triazol-4-yl}-methanol] | 18.1 | > 10200
2 | CC(C)C(=O)Nc1ccc(-n2cc(C(O)c3c(C4CC4)sc4cncn34)nn2)cc1Cl (racemic) [Example 284, rac-N-(2-Chloro-4-{4-[(2-cyclopropyl-imidazo[5,1-b]thiazol-3-yl)-hydroxy-methyl]-[1,2,3]triazol-1-yl}-phenyl)-isobutyramide] | 273 | > 10200
3 | N#Cc1cccc(-c2ccc(C(O)c3c(C4CC4)sc4cncn34)s2)c1 (racemic) [Example 159, rac-3-{5-[(2-Cyclopropyl-imidazo[5,1-b]thiazol-3-yl)-hydroxy-methyl]-thiophen-2-yl}-benzonitrile] | 238 | 8310
4 | OC(c1ccc(-c2ccccc2)cc1)c1c(C2CC2)sc2cncn12 (racemic) [Example 152, rac-Biphenyl-4-yl-(2-cyclopropyl-imidazo[5,1-b]thiazol-3-yl)-methanol] | 184 | > 10200
5 | OC(c1cn(-c2cccc3cnccc23)nn1)c1c(C2CC2)sc2cncn12 (racemic) [Example 23, rac-(2-Cyclopropyl-imidazo[5,1-b]thiazol-3-yl)-(1-isoquinolin-5-yl-1H-[1,2,3]triazol-4-yl)-methanol] | 24 | > 10200
6 | CC1(c2sc3cncn3c2C(O)c2cn(-c3ccc(OCC4(F)COC4)c(Cl)c3)nn2)CC1 (racemic) [Example 315, rac-{1-[3-Chloro-4-(3-fluoro-oxetan-3-ylmethoxy)-phenyl]-1H-[1,2,3]triazol-4-yl}-[2-(1-methyl-cyclopropyl)-imidazo[5,1-b]thiazol-3-yl]-methanol] | 19.5 | > 10200
7 | OC(c1ccc(-c2cccnc2)s1)c1c(C2CC2)sc2cncn12 (racemic) [Example 160, rac-(2-Cyclopropyl-imidazo[5,1-b]thiazol-3-yl)-(5-pyridin-3-yl-thiophen-2-yl)-methanol] | 230 | 5320
8 | Cc1cc(O)cc(-n2cc(C(O)c3c(C4CC4)sc4cncn34)nn2)c1 (racemic) [Example 220, rac-3-{4-[(2-Cyclopropyl-imidazo[5,1-b]thiazol-3-yl)-hydroxy-methyl]-[1,2,3]triazol-1-yl}-5-methyl-phenol] | 27.2 | > 10200
9 | CC(C)C(=O)Nc1ccc(-n2cc(C(O)c3c(C4CC4)sc4cncn34)nn2)cc1 (racemic) [Example 192, rac-N-(4-{4-[(2-Cyclopropyl-imidazo[5,1-b]thiazol-3-yl)-hydroxy-methyl]-[1,2,3]triazol-1-yl}-phenyl)-isobutyramide] | 13.5 | > 10200
10 | CC(C)(C)OC(=O)Nc1ccc(-n2cc(C(O)c3c(C4CC4)sc4cncn34)nn2)cc1 (racemic) [Example 180, rac-(4-{4-[(2-Cyclopropyl-imidazo[5,1-b]thiazol-3-yl)-hydroxy-methyl]-[1,2,3]triazol-1-yl}-phenyl)-carbamic acid tert-butyl ester] | 33.6 | > 10200
11 | CCc1sc2cncn2c1C(O)c1cn(Cc2ccccc2)nn1 (racemic) [Example 53, rac-(1-Benzyl-1H-[1,2,3]triazol-4-yl)-(2-ethyl-imidazo[5,1-b]thiazol-3-yl)-methanol] | 73.6 | > 10200
12 | Oc1cc(Cl)ccc1-n1cc(C(O)c2c(C3CC3)sc3cncn23)nn1 (racemic) [Example 221, rac-5-Chloro-2-{4-[(2-cyclopropyl-imidazo[5,1-b]thiazol-3-yl)-hydroxy-methyl]-[1,2,3]triazol-1-yl}-phenol] | 90.2 | > 10200
13 | CCc1sc2cncn2c1C(O)c1cn(-c2ccc(C3(CO)CC3)cc2)nn1 (racemic) [Example 48, rac-(2-Ethyl-imidazo[5,1-b]thiazol-3-yl)-{1-[4-(1-hydroxymethyl-cyclopropyl)-phenyl]-1H-[1,2,3]triazol-4-yl}-methanol] | 60.6 | > 10200
14 | COC(=O)c1cccc(Cn2cc(C(O)c3c(C4CC4)sc4cncn34)nn2)c1 (racemic) [Example 294, rac-3-{4-[(2-Cyclopropyl-imidazo[5,1-b]thiazol-3-yl)-hydroxy-methyl]-[1,2,3]triazol-1-ylmethyl}-benzoic acid methyl ester] | 35.8 | > 10200
15 | CC1NS(=O)(=O)c2ccc(-n3cc(C(O)c4c(C5CC5)sc5cncn45)nn3)cc21 (centres unmarked) [Example 228, (2-Cyclopropyl-imidazo[5,1-b]thiazol-3-yl)-[1-(3-methyl-1,1-dioxo-2,3-dihydro-1H-1I6-benzo[d]isothiazol-5-yl)-1H-[1,2,3]triazol-4-yl]-methanol] | 76.1 | > 10200
16 | CC(C)(C)OC(=O)Nc1ccc(-n2cc(C(O)c3c(-c4ccccc4)sc4cncn34)nn2)cc1 (racemic) [Example 251, rac-(4-{4-[Hydroxy-(2-phenyl-imidazo[5,1-b]thiazol-3-yl)-methyl]-[1,2,3]triazol-1-yl}-phenyl)-carbamic acid tert-butyl ester] | 569 | > 10200
17 | OC(c1cn(-c2ccc(OCC3CC3)c(Cl)c2)nn1)c1c(-c2ccccc2)sc2cncn12 (racemic) [Example 265, rac-[1-(3-Chloro-4-cyclopropylmethoxy-phenyl)-1H-[1,2,3]triazol-4-yl]-(2-phenyl-imidazo[5,1-b]thiazol-3-yl)-methanol] | 442 | > 10200
18 | OCc1ccc(-n2cc(C(O)c3c(C4CC4)sc4cncn34)nn2)cc1 (racemic) [Example 310, rac-(2-Cyclopropyl-imidazo[5,1-b]thiazol-3-yl)-[1-(4-hydroxymethyl-phenyl)-1H-[1,2,3]triazol-4-yl]-methanol] | 50.1 | > 10200
19 | Cc1ccc(-n2cc(C(O)c3c(C4CC4)sc4cncn34)nn2)cc1 (racemic) [Example 4, rac-(2-Cyclopropyl-imidazo[5,1-b]thiazol-3-yl)-(1-p-tolyl-1H-[1,2,3]triazol-4-yl)-methanol] | 34.5 | > 10200

These reach a lower IC50 [1]. Values come first.

Row | IC50 [1] [nM] | IC50 [2] [nM] | Structure (SMILES)
20 | 8.83 | > 10200 | OC(c1cn(-c2ccc(OCC3CC3)cc2)nn1)c1c(C2CC2)sc2cncn12 (racemic) [Example 35, rac-(2-Cyclopropyl-imidazo[5,1-b]thiazol-3-yl)-[1-(4-cyclopropylmethoxy-phenyl)-1H-[1,2,3]triazol-4-yl]-methanol]
21 | 10 | > 10200 | N#CCCNC(=O)c1ccc(-n2cc(C(O)c3c(C4CC4)sc4cncn34)nn2)cc1 (racemic) [Example 108, rac-N-(2-Cyano-ethyl)-4-{4-[(2-cyclopropyl-imidazo[5,1-b]thiazol-3-yl)-hydroxy-methyl]-[1,2,3]triazol-1-yl}-benzamide]
22 | 4.29 | > 10200 | COc1ccc(-n2cc(C(O)c3c(C4CC4)sc4cncn34)nn2)cc1F (racemic) [Example 327, rac-(2-Cyclopropyl-imidazo[5,1-b]thiazol-3-yl)-[1-(3-fluoro-4-methoxy-phenyl)-1H-[1,2,3]triazol-4-yl]-methanol]
23 | 8.09 | 6770 | CCc1sc2cncn2c1C(O)c1cn(-c2ccc(C(=O)NCc3ccco3)cc2)nn1 (racemic) [Example 123, rac-4-{4-[(2-Ethyl-imidazo[5,1-b]thiazol-3-yl)-hydroxy-methyl]-[1,2,3]triazol-1-yl}-N-furan-2-ylmethyl-benzamide]
24 | 13.1 | > 10200 | CCc1sc2cncn2c1C(O)c1cn(-c2ccc(C(=O)NCCC#N)cc2)nn1 (racemic) [Example 130, rac-N-(2-Cyano-ethyl)-4-{4-[(2-ethyl-imidazo[5,1-b]thiazol-3-yl)-hydroxy-methyl]-[1,2,3]triazol-1-yl}-benzamide]
25 | 13.1 | > 10200 | Oc1ccc(-n2cc(C(O)c3c([C@@H]4C[C@H]4F)sc4cncn34)nn2)cc1Cl (relative stereo) [Example 328, 2-Chloro-4-(4-{[2-(trans-2-fluoro-cyclopropyl)-imidazo[5,1-b]thiazol-3-yl]-hydroxy-methyl}-[1,2,3]triazol-1-yl)-phenol]
26 | 11.5 | > 10200 | OC(c1cn(-c2cnc(OCc3ccccc3)nc2)nn1)c1c(C2CC2)sc2cncn12 (racemic) [Example 85, rac-[1-(2-Benzyloxy-pyrimidin-5-yl)-1H-[1,2,3]triazol-4-yl]-(2-cyclopropyl-imidazo[5,1-b]thiazol-3-yl)-methanol]
27 | 9.32 | > 10200 | N#Cc1cccc(-n2cc(C(O)c3c(C4CC4)sc4cncn34)nn2)c1 (racemic) [Example 18, rac-3-{4-[(2-Cyclopropyl-imidazo[5,1-b]thiazol-3-yl)-hydroxy-methyl]-[1,2,3]triazol-1-yl}-benzonitrile]
28 | 9.29 | 9780 | C=CCNC(=O)c1ccc(-n2cc(C(O)c3c(CC)sc4cncn34)nn2)cc1 (racemic) [Example 129, rac-N-Allyl-4-{4-[(2-ethyl-imidazo[5,1-b]thiazol-3-yl)-hydroxy-methyl]-[1,2,3]triazol-1-yl}-benzamide]
